Target: T1, PAN3 (PAB-dependent poly(A)-specific ribonuclease subunit) (Homo sapiens, UniProt Q58A45)
T1 construct: Native kinases; endogenous in cells; host or cells: HEK293T soluble proteome
T1 sequence (Q58A45 1-887): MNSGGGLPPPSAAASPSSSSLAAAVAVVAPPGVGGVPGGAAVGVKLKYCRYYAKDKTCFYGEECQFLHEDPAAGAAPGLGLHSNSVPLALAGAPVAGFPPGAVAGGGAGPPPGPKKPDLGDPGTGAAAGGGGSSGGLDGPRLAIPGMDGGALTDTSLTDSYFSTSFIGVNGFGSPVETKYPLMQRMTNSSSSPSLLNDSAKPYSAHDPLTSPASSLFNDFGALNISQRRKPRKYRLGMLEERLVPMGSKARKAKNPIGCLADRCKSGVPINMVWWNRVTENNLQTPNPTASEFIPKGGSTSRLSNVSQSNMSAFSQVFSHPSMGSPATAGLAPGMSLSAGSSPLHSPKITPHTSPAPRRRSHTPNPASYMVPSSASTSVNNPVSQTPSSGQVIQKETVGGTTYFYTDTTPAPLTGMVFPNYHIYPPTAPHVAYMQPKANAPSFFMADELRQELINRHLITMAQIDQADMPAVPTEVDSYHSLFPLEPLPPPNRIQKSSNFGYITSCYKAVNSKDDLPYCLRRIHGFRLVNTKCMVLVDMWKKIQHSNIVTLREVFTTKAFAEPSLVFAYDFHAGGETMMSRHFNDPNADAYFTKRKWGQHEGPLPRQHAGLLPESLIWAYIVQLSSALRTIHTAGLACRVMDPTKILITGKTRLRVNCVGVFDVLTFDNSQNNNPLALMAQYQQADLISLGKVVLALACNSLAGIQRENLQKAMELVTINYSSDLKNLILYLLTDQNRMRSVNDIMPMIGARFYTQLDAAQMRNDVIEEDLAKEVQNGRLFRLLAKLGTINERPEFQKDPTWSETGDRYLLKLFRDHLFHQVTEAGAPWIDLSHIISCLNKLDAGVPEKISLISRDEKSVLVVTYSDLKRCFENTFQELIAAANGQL
Assay: SILAC LC-MS ATP acyl phosphate probe competition, native kinases in HEK293T
Format: binding
Conditions: site ATP; ATP 1 mM; Ketanserin, Ritanserin 100 μM; RF001 1 mM
Summary of the method: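 First, HEK293T proteomes at 2 mg/ml in kinase buffer were exposed to compound (heavy) or DMSO (light) for 30 min at 25° C. Next, samples were pooled 1:1 and trypsin/Lys-C digested. Finally, desthiobiotin peptides were enriched on avidin and measured by data-dependent LC-MS/MS.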

Row | Structure (SMILES) | SILAC ratio, PAN3 probe-modified peptide
1 | O=C(c1ccc(F)cc1)C1CCN(CCn2c(=O)[nH]c3ccccc3c2=O)CC1 [Ketanserin] | 1.3
2 | Fc1ccc(C(=C2CCNCC2)c2ccc(F)cc2)cc1 [RF001, 4-(Bis(4-fluorophenyl)methylene) piperidine] | 1.3
3 | Cc1nc2sccn2c(=O)c1CCN1CCC(=C(c2ccc(F)cc2)c2ccc(F)cc2)CC1 [Ritanserin] | 1.8

Source: patent publication US12643867B2, “Compositions and uses thereof” (University of Virginia Patent Foundation, priority 2017, dated 2026)
